Experimental data reported in ChEMBL document CHEMBL5725273, “Thienopyranones as kinase and epigenetic inhibitors” (2016).

Experiments:
[1] = molecular target: Bromodomain-containing protein 4 (Homo sapiens, UniProt O60885); experiment: (§1) Inhibition Assay: Several TP Scaffold compounds were tested for inhibition activity against isoforms of PI3K (alpha, beta, gamma, and delta isoforms) and the bromodomain protein BRD4 at regions 1 (BRD4-1) and 2 (BRD4-2).
[2] = molecular target: Phosphatidylinositol 4,5-bisphosphate 3-kinase catalytic subunit alpha isoform (Homo sapiens, UniProt P42336); experiment: as §1
[3] = molecular target: T1, Phosphatidylinositol 4,5-bisphosphate 3-kinase catalytic subunit delta isoform (Homo sapiens, UniProt O00329); experiment: as §1
T1 sequence (O00329 whole entry): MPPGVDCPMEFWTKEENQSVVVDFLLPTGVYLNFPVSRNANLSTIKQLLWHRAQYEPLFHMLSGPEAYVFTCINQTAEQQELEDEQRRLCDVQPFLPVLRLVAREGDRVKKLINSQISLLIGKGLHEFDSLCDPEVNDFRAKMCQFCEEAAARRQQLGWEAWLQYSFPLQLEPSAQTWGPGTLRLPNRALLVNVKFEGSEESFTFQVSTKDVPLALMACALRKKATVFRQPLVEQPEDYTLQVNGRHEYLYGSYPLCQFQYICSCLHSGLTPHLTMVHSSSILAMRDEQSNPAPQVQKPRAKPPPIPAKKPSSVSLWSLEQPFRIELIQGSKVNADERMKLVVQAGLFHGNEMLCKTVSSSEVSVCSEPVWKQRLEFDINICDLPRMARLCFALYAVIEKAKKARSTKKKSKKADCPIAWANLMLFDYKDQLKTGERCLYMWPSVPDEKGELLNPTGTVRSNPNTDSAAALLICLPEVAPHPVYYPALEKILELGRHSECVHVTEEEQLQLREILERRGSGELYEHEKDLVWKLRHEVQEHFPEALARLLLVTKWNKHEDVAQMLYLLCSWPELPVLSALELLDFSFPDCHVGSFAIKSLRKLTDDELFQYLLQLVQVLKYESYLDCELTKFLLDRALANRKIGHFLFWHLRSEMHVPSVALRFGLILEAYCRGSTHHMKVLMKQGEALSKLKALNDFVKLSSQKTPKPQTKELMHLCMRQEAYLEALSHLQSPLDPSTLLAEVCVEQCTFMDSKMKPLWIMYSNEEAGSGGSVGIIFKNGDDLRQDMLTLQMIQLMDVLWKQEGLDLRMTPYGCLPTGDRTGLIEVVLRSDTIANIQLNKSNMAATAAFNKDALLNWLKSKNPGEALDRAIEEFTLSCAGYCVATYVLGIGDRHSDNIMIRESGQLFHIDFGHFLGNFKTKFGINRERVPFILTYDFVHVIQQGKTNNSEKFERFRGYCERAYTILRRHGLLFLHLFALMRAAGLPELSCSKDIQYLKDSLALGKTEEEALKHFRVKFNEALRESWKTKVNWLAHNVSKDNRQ

[4] = molecular target: Phosphatidylinositol 4,5-bisphosphate 3-kinase catalytic subunit gamma isoform (Homo sapiens, UniProt P48736); experiment: as §1
Sequence of Phosphatidylinositol 4,5-bisphosphate 3-kinase catalytic subunit gamma isoform (P48736 whole entry, canonical isoform): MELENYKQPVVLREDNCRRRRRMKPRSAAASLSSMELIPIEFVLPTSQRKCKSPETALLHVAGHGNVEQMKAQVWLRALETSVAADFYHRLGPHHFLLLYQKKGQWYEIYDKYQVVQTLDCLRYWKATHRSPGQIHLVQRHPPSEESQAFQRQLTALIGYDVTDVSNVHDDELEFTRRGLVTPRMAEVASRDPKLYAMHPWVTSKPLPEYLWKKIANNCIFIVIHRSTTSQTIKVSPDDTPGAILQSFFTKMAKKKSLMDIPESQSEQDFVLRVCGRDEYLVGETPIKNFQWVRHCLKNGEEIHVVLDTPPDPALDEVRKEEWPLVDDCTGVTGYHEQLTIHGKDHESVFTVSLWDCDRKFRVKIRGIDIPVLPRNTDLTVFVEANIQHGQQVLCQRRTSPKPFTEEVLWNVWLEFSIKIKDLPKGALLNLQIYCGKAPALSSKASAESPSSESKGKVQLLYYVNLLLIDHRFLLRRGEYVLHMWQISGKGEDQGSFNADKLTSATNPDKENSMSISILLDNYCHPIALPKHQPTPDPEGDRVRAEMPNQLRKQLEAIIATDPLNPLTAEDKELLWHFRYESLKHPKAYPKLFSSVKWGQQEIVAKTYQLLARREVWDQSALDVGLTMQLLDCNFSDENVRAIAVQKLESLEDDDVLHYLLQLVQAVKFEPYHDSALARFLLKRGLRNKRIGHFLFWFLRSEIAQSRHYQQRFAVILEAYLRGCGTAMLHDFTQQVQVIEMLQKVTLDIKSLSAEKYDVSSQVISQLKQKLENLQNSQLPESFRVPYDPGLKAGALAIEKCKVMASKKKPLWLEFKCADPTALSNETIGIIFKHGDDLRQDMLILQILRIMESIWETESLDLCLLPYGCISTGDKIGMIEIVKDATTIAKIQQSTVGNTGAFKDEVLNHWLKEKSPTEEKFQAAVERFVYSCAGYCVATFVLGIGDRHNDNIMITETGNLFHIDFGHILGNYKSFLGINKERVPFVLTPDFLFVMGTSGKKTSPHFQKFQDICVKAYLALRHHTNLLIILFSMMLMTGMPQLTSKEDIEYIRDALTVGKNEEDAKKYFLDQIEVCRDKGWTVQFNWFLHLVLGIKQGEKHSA

Sequence of Phosphatidylinositol 4,5-bisphosphate 3-kinase catalytic subunit alpha isoform (P42336 whole entry, canonical isoform): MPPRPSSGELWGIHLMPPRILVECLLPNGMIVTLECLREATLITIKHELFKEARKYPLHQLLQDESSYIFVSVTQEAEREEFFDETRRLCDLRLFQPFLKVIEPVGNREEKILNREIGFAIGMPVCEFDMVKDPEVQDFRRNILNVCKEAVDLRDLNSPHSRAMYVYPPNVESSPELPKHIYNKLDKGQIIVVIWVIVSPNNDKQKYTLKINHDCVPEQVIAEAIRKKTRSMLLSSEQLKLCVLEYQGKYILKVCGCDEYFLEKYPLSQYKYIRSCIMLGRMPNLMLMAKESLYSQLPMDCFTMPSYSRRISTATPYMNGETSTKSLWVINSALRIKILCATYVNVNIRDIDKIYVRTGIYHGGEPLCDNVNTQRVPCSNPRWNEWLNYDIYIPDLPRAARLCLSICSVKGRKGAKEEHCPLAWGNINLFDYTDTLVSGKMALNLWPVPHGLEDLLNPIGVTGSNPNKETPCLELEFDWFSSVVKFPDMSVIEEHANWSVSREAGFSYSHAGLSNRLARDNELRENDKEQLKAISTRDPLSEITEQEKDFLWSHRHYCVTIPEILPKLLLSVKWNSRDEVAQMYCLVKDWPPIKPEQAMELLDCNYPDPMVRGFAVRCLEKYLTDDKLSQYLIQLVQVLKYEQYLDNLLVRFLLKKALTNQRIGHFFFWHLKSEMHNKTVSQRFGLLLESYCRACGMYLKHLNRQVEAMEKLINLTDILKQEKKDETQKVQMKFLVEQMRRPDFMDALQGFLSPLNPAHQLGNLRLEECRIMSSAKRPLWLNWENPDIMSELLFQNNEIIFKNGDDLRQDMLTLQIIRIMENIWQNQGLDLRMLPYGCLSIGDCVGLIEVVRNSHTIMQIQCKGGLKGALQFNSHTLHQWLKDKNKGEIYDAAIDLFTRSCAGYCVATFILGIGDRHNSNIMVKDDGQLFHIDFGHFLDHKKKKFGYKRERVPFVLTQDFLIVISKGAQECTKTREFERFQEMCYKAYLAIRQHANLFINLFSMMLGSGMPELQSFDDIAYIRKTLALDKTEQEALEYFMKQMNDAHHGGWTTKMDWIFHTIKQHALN

IC50 [1]: 1010 nM | IC50 [2]: 29100 nM | IC50 [3]: 2490 nM | IC50 [4]: > 50000 nM
SMILES: CCOC(=O)c1ccc(-c2csc3c(=O)cc(N4CCSCC4)oc23)cc1
